Results: the supplement of paper PMC10307832

Key:
Test in all cases: relative viability (nuclei count vs DMSO), 5 days (fraction); higher = more cells survive
Salubrinal + Olaparib = compound: O=C(/C=C/c1ccccc1)NC(NC(=S)Nc1cccc2cccnc12)C(Cl)(Cl)Cl [Salubrinal] + O=C(c1cc(Cc2n[nH]c(=O)c3ccccc23)ccc1F)N1CCN(C(=O)C2CC2)CC1 [Olaparib] (partner 8 µM)
In short: (§1)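 Each reported value is a median over duplicate plates. It expresses relative viability: treated-well nuclei count divided by vehicle-well nuclei count. Lung cancer cell lines in 1536-well plates were dosed by pin tool a day after seeding, alone with one drug or with a fixed anchor-drug dose plus five library-drug doses (not always all listed) in √10 steps, and nuclei were counted after 5 days.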

Salubrinal + Crizotinib = compound: O=C(/C=C/c1ccccc1)NC(NC(=S)Nc1cccc2cccnc12)C(Cl)(Cl)Cl [Salubrinal] + C[C@@H](Oc1cc(-c2cnn(C3CCNCC3)c2)cnc1N)c1c(Cl)ccc(F)c1Cl [Crizotinib] (partner 1 µM)
In short: as §1

[1] = compound: Cc1ccc2nc(NCCN)c3ncc(C)n3c2c1 + C[C@]1(O)C[C@@H](c2nc(-c3ccc4ccc(-c5ccccc5)nc4c3)c3c(N)nccn32)C1 [Linsitinib] (partner 1 µM)
In short: as §1

Salubrinal + Pemetrexed = compound: O=C(/C=C/c1ccccc1)NC(NC(=S)Nc1cccc2cccnc12)C(Cl)(Cl)Cl [Salubrinal] + Nc1nc2[nH]cc(CCc3ccc(C(=O)N[C@@H](CCC(=O)O)C(=O)O)cc3)c2c(=O)[nH]1 [Pemetrexed] (partner 0.2 µM)
In short: as §1

| Cell Line | relative viability (Salubrinal + Olaparib; first compound 0.08 µM) | relative viability (Salubrinal + Olaparib; first compound 0.253 µM) | relative viability (Salubrinal + Olaparib; first compound 0.8 µM) | relative viability (Salubrinal + Olaparib; first compound 2.53 µM) | relative viability (Salubrinal + Olaparib; first compound 8 µM) | relative viability (Salubrinal + Crizotinib; first compound 0.08 µM) | relative viability (Salubrinal + Crizotinib; first compound 0.253 µM) | relative viability (Salubrinal + Crizotinib; first compound 0.8 µM) | relative viability (Salubrinal + Crizotinib; first compound 2.53 µM) | relative viability (Salubrinal + Crizotinib; first compound 8 µM) | relative viability ([1]; first compound 0.04 µM) | relative viability ([1]; first compound 0.1265 µM) | relative viability ([1]; first compound 0.4 µM) | relative viability ([1]; first compound 1.265 µM) | relative viability ([1]; first compound 4 µM) | relative viability (Salubrinal + Pemetrexed; first compound 0.08 µM) | relative viability (Salubrinal + Pemetrexed; first compound 0.253 µM) | relative viability (Salubrinal + Pemetrexed; first compound 0.8 µM) | relative viability (Salubrinal + Pemetrexed; first compound 2.53 µM) | relative viability (Salubrinal + Pemetrexed; first compound 8 µM) |
| --- | --- | --- | --- | --- | --- | --- | --- | --- | --- | --- | --- | --- | --- | --- | --- | --- | --- | --- | --- | --- |
| NCI-H1734 | 0.699 | 0.6 | 0.651 | 0.583 | 0.637 | 0.694 | 0.774 | 0.842 | 0.674 | 0.772 | 0.887 | 0.803 | 0.765 | 0.884 | 0.814 | 0.423 | 0.454 | 0.41 | 0.427 | 0.409 |
| NCI-H2126 | 1.01 | 0.754 | 0.941 | 0.88 | 0.951 | 1.14 | 0.961 | 1.12 | 1.01 | 1.03 | 0.781 | 0.759 | 0.679 | 0.645 | 0.673 | 0.676 | 0.683 | 0.747 | 0.708 | 0.626 |
| EMC-BAC-2 | 0.496 | 0.513 | 0.525 | 0.466 | 0.525 | 0.749 | 0.676 | 0.811 | 0.721 | 0.76 | 0.799 | 0.806 | 0.822 | 0.819 | 0.831 | 0.42 | 0.441 | 0.459 | 0.473 | 0.478 |
| NCI-H1993 | 0.867 | 0.932 | 0.561 | – | 1.47 | 0.795 | 0.856 | 0.794 | 0.909 | 0.941 | 0.726 | 0.763 | 0.673 | 0.75 | 0.73 | 0.666 | 0.596 | 0.524 | – | 0.573 |
